{"source": "ChEMBL document CHEMBL5034030", "about": "“Dolabrane Diterpenoids from the Chinese Liverwort Notoscyphus lutescens” (J Nat Prod, 2021)", "note": "Active and inactive are the calls of the source. The calls are words filed in the database; no cut-off is given here."}
{"target": "NAD(P)H dehydrogenase [quinone] 1 (Mus musculus) (UniProt Q64669)", "sequence (Q64669 whole entry)": "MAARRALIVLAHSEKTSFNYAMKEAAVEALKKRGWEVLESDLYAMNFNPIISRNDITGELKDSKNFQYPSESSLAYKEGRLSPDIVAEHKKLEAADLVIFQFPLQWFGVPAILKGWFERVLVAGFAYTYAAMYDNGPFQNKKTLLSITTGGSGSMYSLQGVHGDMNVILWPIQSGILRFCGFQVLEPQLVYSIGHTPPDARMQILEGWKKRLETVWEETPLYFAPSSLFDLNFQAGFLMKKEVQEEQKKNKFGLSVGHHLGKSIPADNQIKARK", "assay": "Induction of quinone reductase activity in mouse Hepa1c1c7 cells assessed as maximum fold change at 50 uM incubated for 24 hrs by MTT based assay", "assay_type": "cell-based", "settings": "filed as activator"}
{"smiles": "C=C[C@@]1(C)CC[C@@]2(C)[C@@H](CC[C@]34COC(=O)[C@@H]3C[C@H](O)C[C@H]24)C1", "Activity": "Active"}
{"smiles": "C=C[C@@]1(C)CC[C@]2(C)C3C[C@H]4C=C(CO)[C@]3(CC[C@H]2C1)C(OC)O4", "note": "(stereo not given in full)", "Activity": "Active"}
{"smiles": "C=C[C@@]1(C)CC[C@]2(C)C3C[C@H]4C=C(C=O)[C@]3(CC[C@H]2C1)C(O)O4", "note": "(stereo not given in full)", "Activity": "Active"}
{"smiles": "C=C[C@@]1(C)CC[C@]2(C)C3=C(CC[C@H]2C1)[C@](O)(CO)[C@@H](O)[C@H](Cl)C3", "Activity": "Active"}
{"target": "NAD(P)H dehydrogenase [quinone] 1 (Mus musculus) (UniProt Q64669)", "assay": "Induction of quinone reductase activity in mouse Hepa1c1c7 cells assessed as maximum fold change at 3.1 to 100 uM incubated for 24 hrs by MTT based assay", "assay_type": "cell-based", "settings": "dose 3.1-100 µM"}
{"smiles": "C=C[C@@]1(C)CC[C@@]2(C)[C@@H](C[C@@H]3[C@@H](O)C4=C[C@@H](O)C[C@H]2[C@@]43C)C1", "Activity": "inactive"}
{"smiles": "C=C[C@@]1(C)CC[C@@]2(C)[C@@H](CC[C@@]3(C)[C@@H]2CCC(=O)[C@@H]3C)C1", "Activity": "inactive"}
{"smiles": "C=C[C@@]1(C)CC[C@@]2(C)[C@@H](CC[C@]34CO[C@H](OC)C3=C[C@@H](O)C[C@@H]42)C1", "Activity": "inactive"}
{"smiles": "C=C[C@@]1(C)CC[C@@]2(C)[C@@H](CC[C@]34CO[C@@H](OC)C3=C[C@@H](O)C[C@@H]42)C1", "Activity": "inactive"}
{"smiles": "CC1=C(Cc2ccccc2)C(=O)O[C@H]1Cc1ccccc1", "Activity": "inactive"}
{"smiles": "C=C[C@@]1(C)CC[C@@]2(C)[C@@H](CC=C3[C@@H]2C[C@@H](Cl)[C@H](O)[C@@]3(O)CO)C1", "Activity": "inactive"}
{"tested_on": "not listed separately", "assay": "Cytotoxicity against mouse Hepa1c1c7 cells incubated for 24 hrs by MTT based assay", "assay_type": "cell-based", "settings": "Hepa-1c1c7, 24 h", "units": {"IC50": "µM"}}
{"smiles": "C=C[C@@]1(C)CC[C@@]2(C)[C@@H](CC[C@]34COC(=O)[C@@H]3C[C@H](O)C[C@H]24)C1", "IC50": "> 50"}
{"smiles": "C=C[C@@]1(C)CC[C@]2(C)C3C[C@H]4C=C(CO)[C@]3(CC[C@H]2C1)C(OC)O4", "note": "(stereo not given in full)", "IC50": "> 50"}
{"smiles": "C=C[C@@]1(C)CC[C@@]2(C)[C@@H](C[C@@H]3[C@@H](O)C4=C[C@@H](O)C[C@H]2[C@@]43C)C1", "IC50": "> 50"}
{"smiles": "C=C[C@@]1(C)CC[C@@]2(C)[C@@H](CC[C@@]3(C)[C@@H]2CCC(=O)[C@@H]3C)C1", "IC50": "> 50"}
{"smiles": "C=C[C@@]1(C)CC[C@]2(C)C3C[C@H]4C=C(C=O)[C@]3(CC[C@H]2C1)C(O)O4", "note": "(stereo not given in full)", "IC50": "> 50"}
{"smiles": "C=C[C@@]1(C)CC[C@]2(C)C3=C(CC[C@H]2C1)[C@](O)(CO)[C@@H](O)[C@H](Cl)C3", "IC50": "> 50"}
{"smiles": "C=C[C@@]1(C)CC[C@@]2(C)[C@@H](CC[C@]34CO[C@H](OC)C3=C[C@@H](O)C[C@@H]42)C1", "IC50": "> 50"}
{"smiles": "C=C[C@@]1(C)CC[C@@]2(C)[C@@H](CC[C@]34CO[C@@H](OC)C3=C[C@@H](O)C[C@@H]42)C1", "IC50": "> 50"}
{"smiles": "CC1=C(Cc2ccccc2)C(=O)O[C@H]1Cc1ccccc1", "IC50": "> 50"}
{"smiles": "C=C[C@@]1(C)CC[C@@]2(C)[C@@H](CC=C3[C@@H]2C[C@@H](Cl)[C@H](O)[C@@]3(O)CO)C1", "IC50": "> 50"}
